How the values were obtained:
[1] = test system: primary cultured cells of myotubes derived from the DMRV human patients; assay: Amount of NeuAc by HPLC in myotubes from DMRV human patients; assay type: cell-based; conditions: three days, N=3
Description: DMRV human patients are adult patients that have been diagnosed with DMRV by means of GNE gene mutation screening. (Number of patients: 42, the age of the onset of the disease: 20 to 30, sex: male and female) In accordance with a protocol approved by National Center of Neurology and Psychiatry, after obtaining informed consent, skeletal muscles (biceps brachii muscles and anterior tibial muscles) were collected from these patient volunteers under local anesthesia by means of biopsy.
(§1) The skeletal muscle tissues collected from the DMRV human patients or the model mice were lightly washed with PBS or Hank's balanced saline and were treated with 0.25% trypsin for 5 minutes. The tissues were finely cut into several millimeters with ophthalmic scissors, were digested with 0.4% collagenase II/0.25% trypsin at 37° C. for 30 minutes, and were left still to collect supernatant. The precipitate was again treated with the enzyme liquid. After being left still, the precipitate was well suspended in a DMEM-Ham's F-12 culture medium. The tissue suspension was passed through a nylon mesh to remove the tissues. The washings and the supernatant were centrifuged to collect cells. The cells thus collected were plated on a DMEM-Ham's F-12 culture medium at a cell density of 10^6 in a 100-mm plastic dish and were cultured at 37° C. in 5% CO2 for 4 to 7 days.
In the case that the sample was cultured cells, the cells were washed with PBS three times, and 400 p. 1 of 50 mM sulfuric acid was added to the cells. The cells were incubated at 80° C. for 60 minutes and were hydrolyzed to release NeuAc and NeuGc. In the case that the sample was a piece of tissue, the tissue was frozen, was pulverized with an air hammer, and was homogenized in a KCl-tris solution. […] The fluorescent derivative thus prepared was analyzed with HPLC (JASCO Corp.) using 0.05 to 5 nmol/μl Neu5Ac and Neu5Gc standards. The amount of protein from the tissue was measured with a Bio-Rad Protein Assay kit (Bio-Rad Laboratories).
[…] The amount of NeuAc in the cultured cells was measured by the HPLC method described above (N=3).

[2] = test system: primary cultured cells of myotubes derived from the DMRV model mice; assay: Amount of NeuAc by HPLC in myotubes from DMRV model mice; assay type: cell-based; conditions: 10 mM ManNAc, three days; compared with control group (10 mM Glc)
Procedure: as §1, with “The cells thus collected were plated on a DMEM-Ham's F-12 culture medium at a cell density of 10^6 in a 100-mm plastic dish and were cultured at 37° C. in 5% CO2 for 4 to 7 days.” left out
In the case that the sample was cultured cells, the cells were washed with PBS three times, and 400 p. […] The fluorescent derivative thus prepared was analyzed with HPLC (JASCO Corp.) using 0.05 to 5 nmol/μl Neu5Ac and Neu5Gc standards. The amount of protein from the tissue was measured with a Bio-Rad Protein Assay kit (Bio-Rad Laboratories).
ManNAc or Ac5GlcNAcol was added to the culture media of primary cultured cells of myotubes derived from the DMRV model mice such that the final concentration of ManNAc was 10 mM and the final concentration of Ac5GlcNAcol was […]. […] The amount of NeuAc in the cultured cells was measured by the HPLC method described above (N=3).

[3] = test system: cells of animals having GNE gene mutation and normal animals; conditions: cited from earlier work
[4] = in vivo; cited from earlier work
[5] = administration of free N-acetylneuraminic acid; cited from earlier work
[6] = test system: primary cultured cells of myotubes; assay: Cytotoxicity of reagent in myotube culture; assay type: cell-based; conditions: high concentration
[7] = final concentration 0.005, 0.05, 0.5 or 5 mM

| Compound | amount of NeuAc in the cells [1, 7] | amount of NeuAc in the myotubes [2] | incorporation into cells [3] | half-life in the blood of animals [4] | effect of increasing N-acetylneuraminic acid in ganglioside [5] | amount of NeuAc in the cells ([1]; final concentration 0.0002, 0.002, 0.02 or 0.2 mM) | cytotoxicity [6] |
| --- | --- | --- | --- | --- | --- | --- | --- |
| CC(=O)N[C@@H]1C(O)O[C@H](CO)[C@@H](O)[C@@H]1O (some centres unmarked) [ManNAc, N-acetylmannosamine, reference compound] | effective in increasing the amount of NeuAc in the cells in a manner that depended on their doses | increased the amount of NeuAc | – | – | – | – | – |
| CC(=O)N[C@H]1[C@H]([C@H](O)[C@H](O)CO)OC(O)(C(=O)O)C[C@@H]1O (some centres unmarked) [NeuAc, N-acetylneuraminic acid] | effective in increasing the amount of NeuAc in the cells in a manner that depended on their doses | – | difficult to incorporate into cells | very short | no particular effect | – | – |
| CC(=O)N[C@@H]1C(OC(C)=O)O[C@H](COC(C)=O)[C@@H](OC(C)=O)[C@@H]1OC(C)=O (some centres unmarked) [Ac4ManNAc, Tetra-O-acetyl-N-acetylmannosamine] | – | – | – | – | – | effective in increasing the amount of NeuAc at low concentrations in a manner that depended on its dose | has cytotoxicity when the Ac4ManNAc concentration is high |

Reference: US20120264928A1, “THERAPEUTIC PHARMACEUTICAL AGENT FOR DISEASES ASSOCIATED WITH DECREASE IN FUNCTION OF GNE PROTEIN, FOOD COMPOSITION, AND FOOD ADDITIVE” (JAPAN HEALTH SCIENCES FOUNDATION, priority 2009, published 2012)
